Measurements from ChEMBL document CHEMBL4476872, “Inhibitors of cellular metabolic processes” (2018).

Each molecule was assayed against S-adenosylmethionine synthase isoform type-2 (Homo sapiens, UniProt P31153) (assay: Inhibition of recombinant His6-tagged MAT2A (unknown origin) expressed in SF9 insect cells using L-Met as substrate preincubated for 60 mins followed by substrate and ATP addition and measured after 60 mins by spectrophotometric analysis).
Chain of S-adenosylmethionine synthase isoform type-2 (P31153 whole entry, canonical isoform): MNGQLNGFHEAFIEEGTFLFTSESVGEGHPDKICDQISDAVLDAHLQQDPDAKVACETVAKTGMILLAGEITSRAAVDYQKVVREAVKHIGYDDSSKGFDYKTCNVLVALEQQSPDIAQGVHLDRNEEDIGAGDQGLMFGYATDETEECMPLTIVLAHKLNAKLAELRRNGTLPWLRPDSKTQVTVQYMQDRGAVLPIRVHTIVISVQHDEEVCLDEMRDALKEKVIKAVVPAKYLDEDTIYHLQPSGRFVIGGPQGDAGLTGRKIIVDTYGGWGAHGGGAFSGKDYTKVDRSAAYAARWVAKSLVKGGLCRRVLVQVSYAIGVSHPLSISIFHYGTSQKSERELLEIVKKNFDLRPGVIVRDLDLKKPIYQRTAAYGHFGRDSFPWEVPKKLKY

IC50 [nM] | SMILES
100 to 1000 | Cc1[nH]c2c(N3CCCCC3)c(-c3ccccc3)nn2c(=O)c1-c1ccccc1
< 100 | COC(=O)Cc1nc2ccc(-c3c(C)[nH]c4c(-c5ccccc5)c(-c5ccccc5)nn4c3=O)cc2s1
100 to 1000 | Cc1[nH]c2c(-c3ccccc3)c(-c3ccccc3)nn2c(=O)c1-c1ccc(OCC(=O)N(C)C)cc1
100 to 1000 | COc1ccc(-c2c(CC#N)[nH]c3c(-c4ccccc4)c(-c4ccccc4)nn3c2=O)cc1
